Data: ChEMBL document CHEMBL5385944, “Hydrazyl hydroxycoumarins as new potential conquerors towards Pseudomonas aeruginosa” (Bioorg Med Chem Lett, 2024)
Converted amounts (≈) assume the structure as drawn. The source made the active and inactive calls. The rule behind the calls is not given here.

What was measured:
[1] = system: Cell membrane; assay: Disruption of outer membrane integrity in Pseudomonas aeruginosa ATCC 27853 assessed as increase in fluorescence intensity measured after 8 hrs; format: subcellular
[2] = system: Pseudomonas aeruginosa; assay: Antibacterial activity against Pseudomonas aeruginosa ATCC 27853 assessed as reduction in bacterial growth by CLSI protocol based method; format: functional
[3] = system: NCM460; assay: Cytotoxicity against human NCM460 cells assessed as effect on cell surface damage at 25 ug/ml measured after 24 hrs by microscope based analysis; format: toxicity; details: ncm460, 24 h, dose 25 µg/ml
[4] = system: Pseudomonas aeruginosa; assay: Antibacterial activity against Pseudomonas aeruginosa ATCC 90027 assessed as reduction in bacterial growth by CLSI protocol based method; format: functional
[5] = system: Calf thymus DNA; assay: Binding affinity to calf thymus DNA at upto 18 micromol/ml by fluorescence spectroscopic method; format: nucleic-acid assay; details: Bos taurus; dose <= 18.0 µmol/ml
[6] = Hemolytic activity in human RBC assessed as hemolysis at 256 times MIC measured after 8 hrs relative to control; format: toxicity, cell-based, Erythrocyte; details: red blood cells (erythrocytes), read-out: Activity
[7] = system: Cell membrane; assay: Disruption of cell membrane integrity in Pseudomonas aeruginosa ATCC 27853 assessed as increase in protein leakage by Bradford assay; format: subcellular
[8] = system: Erythrocyte; assay: Hemolytic activity against human RBC assessed as effect on cell morphology at 32 times MIC measured after 8 hrs by fluorescence microscopic analysis; format: toxicity, cell-based
[9] = system: Staphylococcus aureus; assay: Antibacterial activity against methicillin resistant Staphylococcus aureus assessed as reduction in bacterial growth by CLSI protocol based method; format: functional
[10] = system: Staphylococcus aureus; assay: Antibacterial activity against methicillin resistant Staphylococcus aureus 43300 assessed as reduction in bacterial growth by CLSI protocol based method; format: functional
[11] = system: Cell membrane; assay: Disruption of inner membrane integrity in Pseudomonas aeruginosa ATCC 27853 assessed as increase in red fluorescence intensity at 8 times MIC measured after 10 to 40 mins by propidium iodide staining based analysis; format: subcellular; details: time 10-40 min
[12] = system: Klebsiella pneumoniae; assay: Antibacterial activity against Klebsiella pneumoniae assessed as reduction in bacterial growth by CLSI protocol based method; format: functional
[13] = system: Enterococcus faecalis; assay: Antibacterial activity against Enterococcus faecalis assessed as reduction in bacterial growth by CLSI protocol based method; format: functional
[14] = system: Acinetobacter baumannii; assay: Antibacterial activity against Acinetobacter baumannii assessed as reduction in bacterial growth by CLSI protocol based method; format: functional
[15] = system: Staphylococcus aureus; assay: Antibacterial activity against Staphylococcus aureus ATCC 25923 assessed as reduction in bacterial growth by CLSI protocol based method; format: functional
[16] = system: Cell membrane; assay: Disruption of inner membrane integrity in Pseudomonas aeruginosa ATCC 27853 assessed as increase in fluorescence intensity at 4 to 8 times MIC; format: subcellular; details: time <= 12.0 min, TDE = time-dependent effect
[17] = system: Escherichia coli; assay: Antibacterial activity against Escherichia coli ATCC 25922 assessed as reduction in bacterial growth by CLSI protocol based method; format: functional
[18] = system: Cell membrane; assay: Disruption of inner membrane integrity in Pseudomonas aeruginosa ATCC 27853 assessed as increase in fluorescence intensity measured after 8 hrs; format: subcellular
[19] = system: Pseudomonas aeruginosa; assay: Antibacterial activity against Pseudomonas aeruginosa ATCC 10104 assessed as reduction in bacterial growth by CLSI protocol based method; format: functional
[20] = system: Pseudomonas aeruginosa; assay: Antibacterial activity against Pseudomonas aeruginosa assessed as reduction in bacterial growth by CLSI protocol based method; format: functional
[21] = system: NCM460; assay: Cytotoxicity against human NCM460 cells assessed as reduction in cell viability at 25 ug/ml measured after 24 hrs by CCK-8 method relative to control; format: toxicity, cell-based; details: ncm460, 24 h, at 25 µg/mL
[22] = system: Pseudomonas aeruginosa; assay: Induction of drug resistance in Pseudomonas aeruginosa ATCC 27853 measured within 17 passages; format: functional
[23] = system: Staphylococcus aureus; assay: Antibacterial activity against Staphylococcus aureus ATCC 29213 assessed as reduction in bacterial growth by CLSI protocol based method; format: functional
[24] = system: Cell membrane; assay: Disruption of outer membrane integrity in Pseudomonas aeruginosa ATCC 27853 assessed as increase in fluorescence intensity at 4 to 8 times MIC; format: subcellular; details: time <= 80.0 min, TDE = time-dependent effect

Question: What does the source list for `O=C(N/N=C/c1c(O)ccc2ccc(=O)oc12)c1ccncc1`?
Answer: Activity [1]: Dose-Dependent Effect; MIC [2]: 0.5 µg/mL (≈ 1.62 µM); Activity [3]: Non-Toxic; MIC [4]: 32 µg/mL (≈ 103 µM); Activity [5]: Active; hemolysis at 8 h, 256 times MIC [6]: < 4%; Activity [7]: Dose-Dependent Effect; Activity [8]: Non-Toxic; MIC [9]: 4 µg/mL (≈ 12.9 µM); MIC [10]: 1 µg/mL (≈ 3.23 µM); Activity [11]: Active; MIC [12]: 2 µg/mL (≈ 6.47 µM); MIC [13]: 8 µg/mL (≈ 25.9 µM); MIC [14]: 1 µg/mL (≈ 3.23 µM); MIC [15]: 16 µg/mL (≈ 51.7 µM); Activity [16]: Tde; MIC [17]: 8 µg/mL (≈ 25.9 µM); Activity [18]: Dose-Dependent Effect; MIC [19]: 16 µg/mL (≈ 51.7 µM); MIC [20]: 8 µg/mL (≈ 25.9 µM); Activity [21]: > 80%; Activity [22]: Active; MIC [23]: 8 µg/mL (≈ 25.9 µM); Activity [24]: Tde
